Source: patent US20180098969A1, “HODGKIN LYMPHOMA THERAPY” (Purdue Pharmaceutical Products L.P., priority 2016, published 2018)

System: L428 cells
Assay: Xenograft in NSG mice, HE staining and immunohistochemistry
Format: in vivo
Settings: for Injection site: Tumour cell necrosis/apoptosis: Marked / Injection site: Tumour cell necrosis/apoptosis: Mild / Injection site: Tumour cell necrosis/apoptosis: Minimal / Injection site: Tumour cell necrosis/apoptosis: Moderate / Injection site: Tumour cell necrosis/apoptosis: No / Injection site: Tumour cell necrosis/apoptosis: Overall / Injection site: Tumour cell necrosis/apoptosis: Severe / Injection site: Tumour infiltration: Marked / Injection site: Tumour infiltration: Mild / Injection site: Tumour infiltration: Minimal / Injection site: Tumour infiltration: Moderate / Injection site: Tumour infiltration: No / Injection site: Tumour infiltration: Overall / Injection site: Tumour infiltration: Severe / Liver: Tumour infiltration: Marked / Liver: Tumour infiltration: Mild / Liver: Tumour infiltration: Minimal / Liver: Tumour infiltration: Moderate / Liver: Tumour infiltration: No / Liver: Tumour infiltration: Overall / Liver: Tumour infiltration: Severe / Tumour presence: Animals with tumour infiltration in liver and in the injection area / Tumour presence: Overall / Liver: Tumour cell necrosis/apoptosis: Marked / Liver: Tumour cell necrosis/apoptosis: Mild / Liver: Tumour cell necrosis/apoptosis: Minimal / Liver: Tumour cell necrosis/apoptosis: Moderate / Liver: Tumour cell necrosis/apoptosis: No / Liver: Tumour cell necrosis/apoptosis: Overall / Liver: Tumour cell necrosis/apoptosis: Severe: % of mice
From the text: Immunodeficient NOD-SCID-gammac−/− (NSG) mice aged 5 to 6 weeks were purchased from Charles River (NOD.Cg-Prkdcscid Il2rgtm1Wjl/SzJ). The mice arrived two weeks before the beginning of the experiments and were housed in micro-isolator cages during the entire course of the study. Immediately prior to the injection of Hodgkin lymphoma cells, mice were exposed to 3 Gy gamma irradiation using an IBL637 ^137Cs irradiator at a dose rate of 0.61 Gy/min. From 10^3 to 10^6 cells, either from the original cell lines or following amplification, were injected intravenously via the retro-orbital sinus. The mice were sacrificed by cervical dislocation and different organs were analysed and tumoural infiltration examined using multiple techniques.
Two independent experiments were performed to investigate the dose-effect of EDO-S101 in NSG mice eight weeks after xenografting with L428 cells as in Example 8. The aim of the protocol shown in FIG. […]
The mice were sacrificed by cervical dislocation. The sampled organs consisted of the eyes (site of injection), liver, spleen and bone marrow. Following dissection of different organs, including tumours, the first portion was used for flow cytometry (FACS) and cytogenetic analyses while the second was fixed in 4% paraformaldehyde (PFA) for immunohistochemistry (IHC). To obtain a single cell suspension, the tissues were first cut into pieces. Thereafter, the cells were physically disaggregated using an 80 μm nylon cell strainer and filtered a second time through a 70 μm nylon cell strainer (BD Biosciences, Erembodegem, Belgium).
Organs were fixed in 4% PFA, trimmed and post-fixed in 70° ethanol. They were then briefly processed using a vacuum inclusion processor and paraffin blocks were prepared. Five micrometer-thick sections were cut from these blocks and the resulting sections were stained with hemotoxylin-eosine (H&E) for histopathological analysis. In addition, IHC was carried out on of the totality of liver and spleen specimens for confirmation of the spread of engrafted cells. The search for single cells or small groups of grafted Hodgkin lymphoma cells was performed using an anti-CD30 antibody (DAKO, France; 1:40, EDTA pH9 pre-treatment) and the Ventana Discovery XT IHC system. Apoptosis and tumour necrosis were analysed.
Microscopic findings were assigned a severity score based upon the following scale: “0”=within physiological limits, “1”=minimal, “2”=mild, “3”=moderate, “4”=marked, “5”=severe. This severity score was attributed according to the size and number of observed lesions.

[1] = two doses of 60 mg/kg three weeks apart

SMILES: Cn1c(CCCCCCC(=O)NO)nc2cc(N(CCCl)CCCl)ccc21 [EDO-S101]
- tumour masses in liver and infiltration into other organs (80 mg/kg): No tumour masses were observed in the liver, nor was infiltration observed into the other organs
- tumour cell necrosis (80 mg/kg or 60 mg/kg): No cell necerosis was observed
- Injection site: Tumour cell necrosis/apoptosis: Marked (80 mg/kg): 0.0%
- Injection site: Tumour cell necrosis/apoptosis: Mild (80 mg/kg): 0.0%
- Injection site: Tumour cell necrosis/apoptosis: Minimal (80 mg/kg): 0.0%
- Injection site: Tumour cell necrosis/apoptosis: Moderate (80 mg/kg): 0.0%
- Injection site: Tumour cell necrosis/apoptosis: No (80 mg/kg): 0.0%
- Injection site: Tumour cell necrosis/apoptosis: Overall (80 mg/kg): 100.0%
- Injection site: Tumour cell necrosis/apoptosis: Severe (80 mg/kg): 0.0%
- Injection site: Tumour infiltration: Marked (80 mg/kg): 0.0%
- Injection site: Tumour infiltration: Mild (80 mg/kg): 0.0%
- Injection site: Tumour infiltration: Minimal (80 mg/kg): 0.0%
- Injection site: Tumour infiltration: Moderate (80 mg/kg): 0.0%
- Injection site: Tumour infiltration: No (80 mg/kg): 0.0%
- Injection site: Tumour infiltration: Overall (80 mg/kg): 33.3%
- Injection site: Tumour infiltration: Severe (80 mg/kg): 33.3%
- Liver: Tumour infiltration: Marked (80 mg/kg): 0.0%
- Liver: Tumour infiltration: Mild (80 mg/kg): 0.0%
- Liver: Tumour infiltration: Minimal (80 mg/kg): 0.0%
- Liver: Tumour infiltration: Moderate (80 mg/kg): 0.0%
- Liver: Tumour infiltration: No (80 mg/kg): 100.0%
- Liver: Tumour infiltration: Overall (80 mg/kg): 0.0%
- Liver: Tumour infiltration: Severe (80 mg/kg): 0.0%
- Tumour presence: Animals with tumour infiltration in liver and in the injection area (80 mg/kg): 0.0%
- Tumour presence: Overall (80 mg/kg): 33.3%
- Injection site: Tumour cell necrosis/apoptosis: Marked (1 * 60 mg/kg): 0.0%
- Injection site: Tumour cell necrosis/apoptosis: Mild (1 * 60 mg/kg): 0.0%
- Injection site: Tumour cell necrosis/apoptosis: Minimal (1 * 60 mg/kg): 50.0%
- Injection site: Tumour cell necrosis/apoptosis: Moderate (1 * 60 mg/kg): 0.0%
- Injection site: Tumour cell necrosis/apoptosis: No (1 * 60 mg/kg): 50.0%
- Injection site: Tumour cell necrosis/apoptosis: Overall (1 * 60 mg/kg): 100.0%
- Injection site: Tumour cell necrosis/apoptosis: Severe (1 * 60 mg/kg): 0.0%
- Injection site: Tumour infiltration: Marked (1 * 60 mg/kg): 50.0%
- Injection site: Tumour infiltration: Mild (1 * 60 mg/kg): 0.0%
- Injection site: Tumour infiltration: Minimal (1 * 60 mg/kg): 0.0%
- Injection site: Tumour infiltration: Moderate (1 * 60 mg/kg): 25.0%
- Injection site: Tumour infiltration: No (1 * 60 mg/kg): 0.0%
- Injection site: Tumour infiltration: Overall (1 * 60 mg/kg): 100.0%
- Injection site: Tumour infiltration: Severe (1 * 60 mg/kg): 25.0%
- Liver: Tumour cell necrosis/apoptosis: Marked (1 * 60 mg/kg): 0.0%
- Liver: Tumour cell necrosis/apoptosis: Mild (1 * 60 mg/kg): 0.0%
- Liver: Tumour cell necrosis/apoptosis: Minimal (1 * 60 mg/kg): 0.0%
- Liver: Tumour cell necrosis/apoptosis: Moderate (1 * 60 mg/kg): 0.0%
- Liver: Tumour cell necrosis/apoptosis: No (1 * 60 mg/kg): 100.0%
- Liver: Tumour cell necrosis/apoptosis: Overall (1 * 60 mg/kg): 0.0%
- Liver: Tumour cell necrosis/apoptosis: Severe (1 * 60 mg/kg): 0.0%
- Liver: Tumour infiltration: Marked (1 * 60 mg/kg): 0.0%
- Liver: Tumour infiltration: Mild (1 * 60 mg/kg): 25.0%
- Liver: Tumour infiltration: Minimal (1 * 60 mg/kg): 25.0%
- Liver: Tumour infiltration: Moderate (1 * 60 mg/kg): 25.0%
- Liver: Tumour infiltration: No (1 * 60 mg/kg): 25.0%
- Liver: Tumour infiltration: Overall (1 * 60 mg/kg): 75.0%
- Liver: Tumour infiltration: Severe (1 * 60 mg/kg): 0.0%
- Tumour presence: Animals with tumour infiltration in liver and in the injection area (1 * 60 mg/kg): 75.0%
- Tumour presence: Overall (1 * 60 mg/kg): 100.0%
- Injection site: Tumour cell necrosis/apoptosis: Marked (2 * 60 mg/kg): 33.3%
- Injection site: Tumour cell necrosis/apoptosis: Mild (2 * 60 mg/kg): 66.7%
- Injection site: Tumour cell necrosis/apoptosis: Minimal (2 * 60 mg/kg): 0.0%
- Injection site: Tumour cell necrosis/apoptosis: Moderate (2 * 60 mg/kg): 0.0%
- Injection site: Tumour cell necrosis/apoptosis: No (2 * 60 mg/kg): 0.0%
- Injection site: Tumour cell necrosis/apoptosis: Overall (2 * 60 mg/kg): 100.0%
- Injection site: Tumour cell necrosis/apoptosis: Severe (2 * 60 mg/kg): 0.0%
- Injection site: Tumour infiltration: Marked (2 * 60 mg/kg): 11.1%
- Injection site: Tumour infiltration: Mild (2 * 60 mg/kg): 0.0%
- Injection site: Tumour infiltration: Minimal (2 * 60 mg/kg): 0.0%
- Injection site: Tumour infiltration: Moderate (2 * 60 mg/kg): 0.0%
- Injection site: Tumour infiltration: No (2 * 60 mg/kg): 0.0%
- Injection site: Tumour infiltration: Overall (2 * 60 mg/kg): 11.1%
- Injection site: Tumour infiltration: Severe (2 * 60 mg/kg): 0.0%
- Liver: Tumour cell necrosis/apoptosis: Marked (2 * 60 mg/kg): 0.0%
- Liver: Tumour cell necrosis/apoptosis: Mild (2 * 60 mg/kg): 0.0%
- Liver: Tumour cell necrosis/apoptosis: Minimal (2 * 60 mg/kg): 0.0%
- Liver: Tumour cell necrosis/apoptosis: Moderate (2 * 60 mg/kg): 0.0%
- Liver: Tumour cell necrosis/apoptosis: No (2 * 60 mg/kg): 100.0%
- Liver: Tumour cell necrosis/apoptosis: Overall (2 * 60 mg/kg): 0.0%
- Liver: Tumour cell necrosis/apoptosis: Severe (2 * 60 mg/kg): 0.0%
- Liver: Tumour infiltration: Marked (2 * 60 mg/kg): 0.0%
- Liver: Tumour infiltration: Mild (2 * 60 mg/kg): 11.1%
- Liver: Tumour infiltration: Minimal (2 * 60 mg/kg): 33.3%
- Liver: Tumour infiltration: Moderate (2 * 60 mg/kg): 0.0%
- Liver: Tumour infiltration: No (2 * 60 mg/kg): 55.6%
- Liver: Tumour infiltration: Overall (2 * 60 mg/kg): 44.4%
- Liver: Tumour infiltration: Severe (2 * 60 mg/kg): 0.0%
- Tumour presence: Animals with tumour infiltration in liver and in the injection area (2 * 60 mg/kg): 0.0%
- Tumour presence: Overall (2 * 60 mg/kg): 55.6%
- severity of tumoural cell infiltration (single 60 or 80 mg/kg or two injections of 60 mg/kg): significant decrease in the severity of tumoural cell infiltration
- tumour regression (single dose of 60 mg/kg): significant tumour regression
- mice with tumour lesions (single dose of 60 mg/kg, 60 mg/kg): only one mouse had moderate tumour lesions
- tumour regression (two administrations of 60 mg/kg, versus control and single 60 mg/kg): Significant tumour regression
- infiltration in the liver [1]: Only one mouse exhibited a moderate level of infiltration in the liver
- tumours in organs (liver, spleen, bone marrow) [1]: No tumours were observed in any organs
